# Like-named read-outs stand apart in the source and are kept apart here. Marks after values point to notes of the source that are not given here.
# Assays:
# [1] = tested on: OPM-2 human multiple myeloma xenograft tumors; test: animal or person; conditions: Mus musculus; for change in vivo at 1 mg/kg / inhibition in vivo at 1 mg/kg: 1 mg/kg/day; for change in vivo at 3 mg/kg / inhibition in vivo at 3 mg/kg: 3 mg/kg/day
# [2] = biological target: human BRD4 first bromodomain (BDI_K57-E168) (Homo sapiens (Human), UniProt O60885); test: TR-FRET bromodomain binding assay, BRD4 first bromodomain
# [3] = biological target: human BRD4 second bromodomain (BDII_E352-M457) (Homo sapiens (Human), UniProt O60885); test: TR-FRET bromodomain binding assay, BRD4 second bromodomain
# [4] = tested on: breast cancer cell line MX-1; test: MX-1 cell line proliferation assay; assay type: cell-based, human; conditions: Homo sapiens, MX1, 72 h; MX-1 cells, 3-day proliferation, Cell Titer Glo; read-out: Cellular proliferation: EC50
# [5] = Human liver microsome stability assay; assay type: in vitro ADME; conditions: both sexes, human, microsomes, pH 7.4
# [6] = Rat liver microsome stability assay; assay type: in vitro ADME; conditions: rat liver microsomes (male Sprague-Dawley), 0.5 μM test compound, 0.25 mg/mL microsomal protein, pH 7.4, 37° C.; read-out: Stability in rat liver microsomes (t1/2 in minutes)
# [7] = Mouse liver microsome stability assay; assay type: in vitro ADME; conditions: male, CD1, mouse, microsomes, pH 7.4
# [8] = tested on: LPS induced IL-6 production; test: LPS (lipopolysaccharide) induced IL-6 production mouse assay; assay type: in vivo; conditions: Mus musculus, read-out: Inhibition of LPS induced IL-6 production in Mice, % inhibition at 3 mg/kg; 3 mg/kg oral, 1 h before LPS; serum IL-6 2 h after LPS
# [9] = tested on: MX-1 human breast cancer xenograft tumors; test: Xenograft tumor growth inhibition assay, MX-1; assay type: in vivo, mouse; conditions: MX-1, PO, vehicle F
# [10] = tested on: SKM1 human cancer cell xenograft; test: Xenograft efficacy study, SKM1; assay type: in vivo, mouse
# [11] = tested on: MV4-11 human cancer cell xenograft; test: Xenograft efficacy study, MV4-11; assay type: in vivo, mouse; conditions: 250 mg/kg/day, IP, BID Q7Dx3, vehicle C
# [12] = 3 mg/kg/day, QD (5 on, 3 off, 5 on)
# [13] = OPM-2, po, read-out: % TGD (tumor growth delay), OPM-2, PO, QDx21, vehicle A
# [14] = OPM-2, po, read-out: % TGI (tumor growth inhibition), OPM-2, PO, QDx21, vehicle A
# [15] = 6 mg/kg/day, IV, Q7Dx3, vehicle C
# [16] = 250 mg/kg/day, IP, BID Q7Dx3, vehicle C
SMILES,Ki [2],Ki [3],EC50 [4],half-life at 0.5 μM [5],half-life at 0.5 μM [6],half-life at 0.5 μM [7],inhibition in vivo at 3 mg/kg [8],also measured
CC(C)C[C@H](NC(=O)[C@H](Cc1ccccc1)NC(=O)c1cnccn1)B(O)O [Bortezomib],–,–,–,–,–,–,–,"change in vivo at 1 mg/kg ([1]; OPM-2, iv, read-out: % TGD (tumor growth delay), OPM-2, IV, Q4Dx3, vehicle B): 93%; inhibition in vivo at 1 mg/kg ([1]; OPM-2, iv, read-out: % TGI (tumor growth inhibition), OPM-2, IV, Q4Dx3, vehicle B): 80%"
"Cn1cc(-c2cc(NS(C)(=O)=O)ccc2Oc2ccc(F)cc2F)c2cc[nH]c2c1=O [Example 27, N-[4-(2,4-difluorophenoxy)-3-(6-methyl-7-oxo-6,7-dihydro-1H-pyrrolo[2,3-c]pyridin-4-yl)phenyl]methanesulfonamide]",2.5 nM,2.2 nM,31.7 nM,32 min,> 120 min,59 min,89%,"% TGD (tumor growth delay) ([9]; 0.3 mg/kg/day, QD): 35%; % TGI (tumor growth inhibition) ([9]; 0.3 mg/kg/day, QD): 38** %; % removed from study ([9]; 0.3 mg/kg/day, QD): 0%; % TGD (tumor growth delay) ([9]; 1 mg/kg/day, QD): 13%; % TGI (tumor growth inhibition) ([9]; 1 mg/kg/day, QD): 57*** %; % removed from study ([9]; 1 mg/kg/day, QD): 0%; % TGI (tumor growth inhibition) [9, 12]: 69*** %; % removed from study [9, 12]: 0%; change in vivo at 1 mg/kg ([1]; OPM-2, po, read-out: % TGD (tumor growth delay), OPM-2, PO, QDx14, vehicle A): -2%; change in vivo at 3 mg/kg ([1]; OPM-2, po, read-out: % TGD (tumor growth delay), OPM-2, PO, QD (5 on, 3 off, 5 on), vehicle A): 7%; inhibition in vivo at 1 mg/kg ([1]; OPM-2, po, read-out: % TGI (tumor growth inhibition), OPM-2, PO, QDx14, vehicle A): 59%; inhibition in vivo at 3 mg/kg ([1]; OPM-2, po, read-out: % TGI (tumor growth inhibition), OPM-2, PO, QD (5 on, 3 off, 5 on), vehicle A): 67%"
"Cn1cc(-c2cc(S(N)(=O)=O)ccc2Oc2ccc(F)cc2F)c2cc[nH]c2c1=O [Example 146, 4-(2,4-difluorophenoxy)-3-(6-methyl-7-oxo-6,7-dihydro-1H-pyrrolo[2,3-c]pyridin-4-yl)benzenesulfonamide]",7.5 nM,1.9 nM,60.9 nM,> 120 min,52 min,55 min,80%,"change in vivo at 1 mg/kg [1, 13]: 35%; change in vivo at 3 mg/kg [1, 13]: 78%; inhibition in vivo at 1 mg/kg [1, 14]: 39%; inhibition in vivo at 3 mg/kg [1, 14]: 76%"
"Cn1cc(-c2cc(S(C)(=O)=O)ccc2OCC2CC2)c2cc[nH]c2c1=O [Example 158, 4-[2-(cyclopropylmethoxy)-5-(methylsulfonyl)phenyl]-6-methyl-1,6-dihydro-7H-pyrrolo[2,3-c]pyridin-7-one]",4.1 nM,9.7 nM,24.3 nM,> 120 min,> 120 min,> 120 min,–,"change in vivo at 6 mg/kg ([1]; OPM-2, po, read-out: % TGD (tumor growth delay), OPM-2, 6 mg/kg/day, PO, QDx21, vehicle A): 34%; change in vivo at 20 mg/kg ([1]; OPM-2, po, read-out: % TGD (tumor growth delay), OPM-2, 20 mg/kg/day, PO, QDx21, vehicle A): 72%; inhibition in vivo at 6 mg/kg ([1]; OPM-2, po, read-out: % TGI (tumor growth inhibition), OPM-2, 6 mg/kg/day, PO, QDx21, vehicle A): 53%; inhibition in vivo at 20 mg/kg ([1]; OPM-2, po, read-out: % TGI (tumor growth inhibition), OPM-2, 20 mg/kg/day, PO, QDx21, vehicle A): 78%"
"CCS(=O)(=O)c1ccc(OC2CCC(F)(F)CC2)c(-c2cn(C)c(=O)c3[nH]ccc23)c1 [Example 169, 4-{2-[(4,4-difluorocyclohexyl)oxy]-5-(ethylsulfonyl)phenyl}-6-methyl-1,6-dihydro-7H-pyrrolo[2,3-c]pyridin-7-one]",0.88 nM,0.86 nM,5.3 nM,86 min,34 min,38 min,67%,"change in vivo at 3 mg/kg [1, 13]: 77%; inhibition in vivo at 3 mg/kg [1, 14]: 69%"
"CCS(=O)(=O)c1ccc(NCC2CC2)c(-c2cn(C)c(=O)c3[nH]ccc23)c1 [Example 200, 4-{2-[(cyclopropylmethyl)amino]-5-(ethylsulfonyl)phenyl}-6-methyl-1,6-dihydro-7H-pyrrolo[2,3-c]pyridin-7-one]",0.86 nM,1.1 nM,11.3 nM,> 120 min,31 min,> 120 min,75%,"change in vivo at 1 mg/kg [1, 13]: 44%; change in vivo at 3 mg/kg [1, 13]: 82%; inhibition in vivo at 1 mg/kg [1, 14]: 50%; inhibition in vivo at 3 mg/kg [1, 14]: 80%"
"CNS(=O)(=O)c1ccc(OCC2CC2)c(-c2cn(C)c(=O)c3[nH]ccc23)c1 [Example 250, 4-(cyclopropylmethoxy)-N-methyl-3-(6-methyl-7-oxo-6,7-dihydro-1H-pyrrolo[2,3-c]pyridin-4-yl)benzenesulfonamide]",1.5 nM,1.5 nM,18 nM,56 min,36 min,37 min,–,"change in vivo at 3 mg/kg [1, 13]: 29%; inhibition in vivo at 3 mg/kg [1, 14]: 42%"
"CCS(=O)(=O)c1ccc(Oc2ccc(C#N)cc2)c(-c2cn(C)c(=O)c3[nH]ccc23)c1 [Example 304, 4-[4-(ethylsulfonyl)-2-(6-methyl-7-oxo-6,7-dihydro-1H-pyrrolo[2,3-c]pyridin-4-yl)phenoxy]benzonitrile]",9 nM,21.8 nM,32.3 nM,> 120 min,65 min,72 min,67%,–
"Cn1cc(-c2cc(S(=O)(=O)N3CC(F)(F)C3)ccc2OCC2CC2)c2cc[nH]c2c1=O [Example 308, 4-{2-(cyclopropylmethoxy)-5-[(3,3-difluoroazetidin-1-yl)sulfonyl]phenyl}-6-methyl-1,6-dihydro-7H-pyrrolo[2,3-c]pyridin-7-one]",49.9 nM,6.5 nM,29.3 nM,20 min,10 min,16 min,48%,–
"Cn1cc(-c2cc(CS(C)(=O)=O)cnc2Oc2ccc(F)cc2F)c2cc[nH]c2c1=O [Example 311, 4-{2-(2,4-difluorophenoxy)-5-[(methylsulfonyl)methyl]pyridin-3-yl}-6-methyl-1,6-dihydro-7H-pyrrolo[2,3-c]pyridin-7-one]",14.8 nM,4.5 nM,22.4 nM,> 120 min,83 min,> 120 min,74%,"change in vivo at 1.25 mg/kg ([1]; OPM-2, po, read-out: % TGD (tumor growth delay), OPM-2, 1.25 mg/kg/day, PO, QDx21, vehicle A): 90%; inhibition in vivo at 1.25 mg/kg ([1]; OPM-2, po, read-out: % TGI (tumor growth inhibition), OPM-2, 1.25 mg/kg/day, PO, QDx21, vehicle A): 60%"
"Cn1cc(-c2cc(CS(C)(=O)=O)ccc2Oc2ccc(F)cc2F)c2cn[nH]c2c1=O [Example 321, 4-{2-(2,4-difluorophenoxy)-5-[(methylsulfonyl)methyl]phenyl}-6-methyl-1,6-dihydro-7H-pyrazolo[3,4-c]pyridin-7-one]",33.4 nM,32.1 nM,34.4 nM,> 120 min,103 min,> 120 min,63%,–
"CCS(=O)(=O)c1ccc(N2CCCC2)c(-c2cn(C)c(=O)c3[nH]ccc23)c1 [Example 330, 4-[5-(ethylsulfonyl)-2-(pyrrolidin-1-yl)phenyl]-6-methyl-1,6-dihydro-7H-pyrrolo[2,3-c]pyridin-7-one]",50.9 nM,4.6 nM,30.6 nM,29.9 min,12 min,28 min,45%,–
Nc1ncn([C@@H]2O[C@H](CO)[C@@H](O)[C@H]2O)c(=O)n1 [azacitidine],–,–,–,–,–,–,–,"% TGD (tumor growth delay) [10, 15]: 98* %; % TGI (tumor growth inhibition) [10, 15]: 54** %; % removed from study [10, 15]: 0%"
Nc1ccn([C@@H]2O[C@H](CO)[C@@H](O)[C@@H]2O)c(=O)n1 [cytarabine],–,–,–,–,–,–,–,"% TGD (tumor growth delay) [11]: 37*** %; % TGI (tumor growth inhibition) [11]: 47*** %; % removed from study [11]: 0%; % TGD (tumor growth delay) [10, 16]: 30%; % TGI (tumor growth inhibition) [10, 16]: 20%; % removed from study [10, 16]: 0%"

# Reference: patent US9296741B2, “Bromodomain inhibitors” (priority 2012, dated 2016)
